Assay results: PubChem BioAssay AID2060891 (Molecular Pharmacology Branch, DTP, NCI, 2025)

Test system: K98450-129-R-PDC complex spheroid growth, percent test/control
Assay: Anticancer human tumor K98450-129-R-PDC patient-derived colon adenocarcinoma cell line growth inhibition [RAS]
Details: for IC50: curve of first compound; for viability, T/C: stronger effect = lower value
How it was run: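 Agents were tested in combination matrices in half-log decrements from a top concentration at or near clinical Cmax (10 microM if undetermined). Targets were multi-cell spheroids of tumour lines plus HUVEC and MSC stromal cells.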
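Also: spheroids exposed to agents for seven days before the viability readout.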
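For viability, T/C in this document: luminescence used as a proxy for viable cell amount.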

## CC1(C)CCC(Nc2ncc(C(F)(F)F)c(-c3c[nH]c4c(P(C)(C)=O)c(C#N)ccc34)n2)CN1 (centres undefined) + CCn1c(-c2cccnc2C(C)OC)c2c3cc(ccc31)N1CCOC(CC(NC(=O)C(C(C)C)N(C)C(=O)C3(F)CCN(C(=O)C#CC(C)(C)N(C)C)CC3)C(=O)N3CCCC(N3)C(=O)OCC(C)(C)C2)C1
Second compound 0.000949 µM
  IC50: > 300 nM
Second compound 0.003 µM
  IC50: > 300 nM
Second compound 0.00949 µM
  IC50: > 300 nM
Second compound 0.03 µM
  IC50: < 0.949 nM
Second compound 0.0949 µM
  IC50: < 0.949 nM
Second compound 0.3 µM
  IC50: < 0.949 nM
Second compound 0.000949 µM, first compound 0.000949 µM
  viability, T/C: 88.2%
Second compound 0.000949 µM, first compound 0.003 µM
  viability, T/C: 72.2%
Second compound 0.000949 µM, first compound 0.00949 µM
  viability, T/C: 83.1%
Second compound 0.000949 µM, first compound 0.03 µM
  viability, T/C: 79.9%
Second compound 0.000949 µM, first compound 0.0949 µM
  viability, T/C: 80.8%
Second compound 0.000949 µM, first compound 0.3 µM
  viability, T/C: 53.8%
Second compound 0.003 µM, first compound 0.000949 µM
  viability, T/C: 72.4%
Second compound 0.003 µM, first compound 0.003 µM
  viability, T/C: 52.9%
Second compound 0.003 µM, first compound 0.00949 µM
  viability, T/C: 64.5%
Second compound 0.003 µM, first compound 0.03 µM
  viability, T/C: 67.7%
Second compound 0.003 µM, first compound 0.0949 µM
  viability, T/C: 61.1%
Second compound 0.003 µM, first compound 0.3 µM
  viability, T/C: 50.4%
Second compound 0.00949 µM, first compound 0.000949 µM
  viability, T/C: 52.5%
Second compound 0.00949 µM, first compound 0.003 µM
  viability, T/C: 45.5%
Second compound 0.00949 µM, first compound 0.00949 µM
  viability, T/C: 52.7%
Second compound 0.00949 µM, first compound 0.03 µM
  viability, T/C: 53.4%
Second compound 0.00949 µM, first compound 0.0949 µM
  viability, T/C: 51.8%
Second compound 0.00949 µM, first compound 0.3 µM
  viability, T/C: 49.6%
Second compound 0.03 µM, first compound 0.000949 µM
  viability, T/C: 45%
Second compound 0.03 µM, first compound 0.003 µM
  viability, T/C: 42.9%
Second compound 0.03 µM, first compound 0.00949 µM
  viability, T/C: 43.2%
Second compound 0.03 µM, first compound 0.03 µM
  viability, T/C: 45.1%
Second compound 0.03 µM, first compound 0.0949 µM
  viability, T/C: 48.2%
Second compound 0.03 µM, first compound 0.3 µM
  viability, T/C: 43.5%
Second compound 0.0949 µM, first compound 0.000949 µM
  viability, T/C: 39.2%
Second compound 0.0949 µM, first compound 0.003 µM
  viability, T/C: 41.1%
Second compound 0.0949 µM, first compound 0.00949 µM
  viability, T/C: 44.7%
Second compound 0.0949 µM, first compound 0.03 µM
  viability, T/C: 41.8%
Second compound 0.0949 µM, first compound 0.0949 µM
  viability, T/C: 50.3%
Second compound 0.0949 µM, first compound 0.3 µM
  viability, T/C: 43.1%
Second compound 0.3 µM, first compound 0.000949 µM
  viability, T/C: 34.3%
Second compound 0.3 µM, first compound 0.003 µM
  viability, T/C: 40.7%
Second compound 0.3 µM, first compound 0.00949 µM
  viability, T/C: 43.1%
Second compound 0.3 µM, first compound 0.03 µM
  viability, T/C: 36.2%
Second compound 0.3 µM, first compound 0.0949 µM
  viability, T/C: 46.9%
Second compound 0.3 µM, first compound 0.3 µM
  viability, T/C: 42%

## Cc1nc(N2CCC3(CC2)COC(C)C3N)c(CO)nc1Sc1ccnc(N)c1Cl (centres undefined) + CCn1c(-c2cccnc2C(C)OC)c2c3cc(ccc31)N1CCOC(CC(NC(=O)C(C(C)C)N(C)C(=O)C3(F)CCN(C(=O)C#CC(C)(C)N(C)C)CC3)C(=O)N3CCCC(N3)C(=O)OCC(C)(C)C2)C1
Second compound 0.000949 µM
  IC50: 365 nM
Second compound 0.003 µM
  IC50: 41.5 nM
Second compound 0.00949 µM
  IC50: < 31.6 nM
Second compound 0.03 µM
  IC50: < 31.6 nM
Second compound 0.0949 µM
  IC50: < 31.6 nM
Second compound 0.3 µM
  IC50: < 31.6 nM
Second compound 0.000949 µM, first compound 0.0316 µM
  viability, T/C: 71.8%
Second compound 0.000949 µM, first compound 0.1 µM
  viability, T/C: 64.7%
Second compound 0.000949 µM, first compound 0.316 µM
  viability, T/C: 54.1%
Second compound 0.000949 µM, first compound 1 µM
  viability, T/C: 27.5%
Second compound 0.000949 µM, first compound 3.16 µM
  viability, T/C: 12.1%
Second compound 0.000949 µM, first compound 10 µM
  viability, T/C: 9.55%
Second compound 0.003 µM, first compound 0.0316 µM
  viability, T/C: 53.4%
Second compound 0.003 µM, first compound 0.1 µM
  viability, T/C: 39%
Second compound 0.003 µM, first compound 0.316 µM
  viability, T/C: 16.9%
Second compound 0.003 µM, first compound 1 µM
  viability, T/C: 10.4%
Second compound 0.003 µM, first compound 3.16 µM
  viability, T/C: 8.15%
Second compound 0.003 µM, first compound 10 µM
  viability, T/C: 7.47%
Second compound 0.00949 µM, first compound 0.0316 µM
  viability, T/C: 32.7%
Second compound 0.00949 µM, first compound 0.1 µM
  viability, T/C: 21.6%
Second compound 0.00949 µM, first compound 0.316 µM
  viability, T/C: 12.3%
Second compound 0.00949 µM, first compound 1 µM
  viability, T/C: 8.57%
Second compound 0.00949 µM, first compound 3.16 µM
  viability, T/C: 8.2%
Second compound 0.00949 µM, first compound 10 µM
  viability, T/C: 6.2%
Second compound 0.03 µM, first compound 0.0316 µM
  viability, T/C: 26.1%
Second compound 0.03 µM, first compound 0.1 µM
  viability, T/C: 14.9%
Second compound 0.03 µM, first compound 0.316 µM
  viability, T/C: 10.7%
Second compound 0.03 µM, first compound 1 µM
  viability, T/C: 10.1%
Second compound 0.03 µM, first compound 3.16 µM
  viability, T/C: 6.29%
Second compound 0.03 µM, first compound 10 µM
  viability, T/C: 6.11%
Second compound 0.0949 µM, first compound 0.0316 µM
  viability, T/C: 20.9%
Second compound 0.0949 µM, first compound 0.1 µM
  viability, T/C: 16%
Second compound 0.0949 µM, first compound 0.316 µM
  viability, T/C: 8.78%
Second compound 0.0949 µM, first compound 1 µM
  viability, T/C: 8.48%
Second compound 0.0949 µM, first compound 3.16 µM
  viability, T/C: 8.98%
Second compound 0.0949 µM, first compound 10 µM
  viability, T/C: 6.05%
Second compound 0.3 µM, first compound 0.0316 µM
  viability, T/C: 21.7%
Second compound 0.3 µM, first compound 0.1 µM
  viability, T/C: 14.2%
Second compound 0.3 µM, first compound 0.316 µM
  viability, T/C: 10.3%
Second compound 0.3 µM, first compound 1 µM
  viability, T/C: 8.27%
Second compound 0.3 µM, first compound 3.16 µM
  viability, T/C: 8.02%
Second compound 0.3 µM, first compound 10 µM
  viability, T/C: 6.57%
